This experiment concerns the target hPHT1 (human peptide/histidine transporter 1, SLC15A4) (Homo sapiens, UniProt Q8N697, L14A/L15A/L318A/V319A). The experiment can be described thus: inhibition of MDP uptake in hPHT1mut cells at […], mock-subtracted. Type of experiment: cell-based. The following applies: read-out: % inhibition at 2 mM.

Each structure is given as a SMILES string.

Sequence of hPHT1 (human peptide/histidine transporter 1, SLC15A4) (Q8N697 whole entry L14A/L15A/L318A/V319A): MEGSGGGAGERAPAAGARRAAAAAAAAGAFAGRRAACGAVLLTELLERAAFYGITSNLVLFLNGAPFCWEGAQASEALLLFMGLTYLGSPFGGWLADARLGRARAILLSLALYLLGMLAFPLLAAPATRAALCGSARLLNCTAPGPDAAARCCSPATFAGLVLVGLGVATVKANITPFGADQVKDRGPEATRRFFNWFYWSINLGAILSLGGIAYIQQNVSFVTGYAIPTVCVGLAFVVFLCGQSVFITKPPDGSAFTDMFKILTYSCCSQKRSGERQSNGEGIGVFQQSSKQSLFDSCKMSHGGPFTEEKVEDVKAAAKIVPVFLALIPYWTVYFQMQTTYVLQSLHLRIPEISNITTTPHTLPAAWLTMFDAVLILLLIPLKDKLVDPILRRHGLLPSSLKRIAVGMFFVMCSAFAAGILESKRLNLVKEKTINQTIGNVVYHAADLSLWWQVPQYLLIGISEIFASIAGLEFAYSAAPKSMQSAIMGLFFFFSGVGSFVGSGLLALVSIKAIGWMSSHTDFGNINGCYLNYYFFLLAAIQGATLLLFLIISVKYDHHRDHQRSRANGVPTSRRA

Broadly, the inhibition is the percentage by which the read-out fell short of the control. In the case of `C[C@H](CS)C(=O)N1CCC[C@H]1C(=O)O` [captopril], the inhibition at 2000 µM was in the range of 70 to 85%. As to `CC1=C(C(=O)O)N2C(=O)[C@@H](NC(=O)[C@H](N)c3ccc(O)cc3)[C@H]2SC1` [cefadroxil], the inhibition at 2000 µM was 70 to 85%. The value for `CC1=C(C(=O)O)N2C(=O)[C@@H](NC(=O)[C@H](N)C3=CCC=CC3)[C@H]2SC1` [cephradine] was 70 to 85%; that for `NCCCC[C@H](N[C@@H](CCc1ccccc1)C(=O)O)C(=O)N1CCC[C@H]1C(=O)O` [lisinopril] was 70 to 85%.

(Values after PMC5826766 (Molecular pharmaceutics, 2018).)
